From patent publication US6884418B1, “Use of ligand-mimicking agents and anti-neoplastic drugs in cancer therapy” (Berlex Laboratories, Inc., priority 1989, dated 2005)

Columns and labels:
SKBR3 cells [1] = experiment: Soft agar clonogenic assay, SKBR3; assay type: cell-based, human; settings: 10 ng/ml cisplatin alone
Experimental: The effects of TAb 250 alone and in combination with cisplatin (CDDP) on growth of human tumor cells in soft agar was assessed. SKOV3 (6,000 cells per ml) or SKBR3 (12,000 cells per ml) were incubated in assay medium (DMEM:F12, University of California at San Francisco Cell Culture Facility), 10% dialyzed FBS 0.1 mM nonessential amino acids in solution obtained from Gibco, 1 mM sodium pyruvate and 10 mM HEPES) for 30 minutes at 37° C. with 1 or 10 μg/ml TAb 250. CDDP at concentrations of either 10 ng/ml for SKBR3 cells and 100 ng/ml for SKOV3 cells was then added and the incubation continued for 1.5 hours at 37° C. An equal volume of assay medium containing 0.8% Sea Plaque agarose and appropriate concentrations of TAb 250 and CDDP were combined with the cell mixture. Triplicate 1 ml aliquots were dispensed onto base layers of 0.8% agarose in assay medium containing the appropriate amounts of TAb 250, CDDP or both, in 35 mm dishes. After 14 days at 37° C./5% CO2 in a humidified chamber, viable colonies were stained for 24 hours with Nitro Blue tetrazolium dye (Sigma, 500 μg in 1 ml PBS). Stained colonies greater than 60 μ were scored positive using a FAS III Image Analysis System (Bausch and Lomb, Rochester, N.Y.). The data are expressed as a percentage of untreated control colonies formed. In control dishes, SKOV3 and SKBR3 cells formed 859+/−16 and 1107+/−72 colonies, respectively. […]

SKBR3 cells [2] = experiment: MTT assay, SKBR3 cells; assay type: cell-based, human
Experimental: The MTT assay is generally used to assess cellular viability as a function of mitochondrial activity. The assay was used to examine effects of cisplatin with and without the c-erbB-2 monoclonal antibodies and was carried out as follows:
MTT was added for 4 hours and the crystals dissolved with isopropanol/0.04N HCI/0.3% SDS.

SMILES: N.N.[Cl][Pt][Cl] [cisplatin, cis-diamminedichloroplatinum]
- colony formation in soft agar (SKBR3 cells [1]): did not inhibit colony formation
- cell growth (SKBR3 cells [2]; 1.0 μg of cisplatin alone): 65 % of control
- toxicity to the cells (SKBR3 cells [2]; 3.0 μg of cisplatin alone): highly toxic

SMILES: N[C@@H](Cc1ccc(N(CCCl)CCCl)cc1)C(=O)O [melphalan, 4-[bis(2-chloroethyl)amino] L-phenylalanine]
- proliferation (SKBR3 cells [2]; 20 μg of melphalan alone): 70 % of control

SMILES: N.N.O=C([O-])C1(C(=O)[O-])CCC1.[Pt+2] [carboplatin, cis-diammine-1,1-cyclobutane dicarboxylate platinum]
- cell proliferation (SKBR3 cells [2]; 16 μg of carboplatin alone): 63 % of control
- synergistic response of the drug combined with TAb 250 (SKBR3 cells [2]; MTT assay, carboplatin 16 μg, melphalan 20 μg): synergistic effects
